Here are results for three compounds from ChEMBL document CHEMBL1201862, “PubChem BioAssay data set” (2004).

In test [1] the target is T1, G-protein coupled receptor 55 (Homo sapiens, UniProt Q9Y2T6). Briefly: blockade of LPI-induced GPR55 arrestin translocation – imaging, U2OS, beta-arrestin-GFP, LPI agonist, set 2, SAR follow-up (AID 2820). The class given is functional.
In test [2] the target is T2, Cannabinoid receptor 2 (Homo sapiens, UniProt P34972). Kind of test: SAR analysis of antagonists of the Cannabinoid Receptor 2 using an Image-Based Assay. [Related pubchem assays (depositor defined):AID2013, AID2026]. Type of test: functional.
T2 sequence (P34972 whole entry): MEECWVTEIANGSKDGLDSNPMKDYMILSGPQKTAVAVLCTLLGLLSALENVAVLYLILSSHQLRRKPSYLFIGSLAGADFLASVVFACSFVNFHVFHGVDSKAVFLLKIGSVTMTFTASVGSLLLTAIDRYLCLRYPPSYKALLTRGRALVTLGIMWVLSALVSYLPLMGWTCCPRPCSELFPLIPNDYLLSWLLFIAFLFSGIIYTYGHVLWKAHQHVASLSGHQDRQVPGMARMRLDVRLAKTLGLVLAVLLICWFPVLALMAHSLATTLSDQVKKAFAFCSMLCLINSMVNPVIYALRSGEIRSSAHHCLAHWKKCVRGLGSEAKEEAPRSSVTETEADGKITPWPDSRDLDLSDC
For test [3], the target named is T1, G-protein coupled receptor 55. Kind of test: inhibition of LPI-stimulated GPR55 beta-arrestin translocation – imaging, U2OS, beta-arrestin-GFP, LPI agonist, primary screen (AID 2013).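 Further: antagonist potency measured as reduced agonist-driven arrestin aggregation.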 Type of test: functional.
In test [4] the target is T3, Cannabinoid receptor 1 (Homo sapiens, UniProt P21554). Kind of test: SAR analysis of agonists of the Cannabinoid Receptor 1 using an Image-Based Assay - Set 2. [Related pubchem assays (depositor defined):AID2013, AID2026]. Type of test: functional.
T3 sequence (P21554 whole entry): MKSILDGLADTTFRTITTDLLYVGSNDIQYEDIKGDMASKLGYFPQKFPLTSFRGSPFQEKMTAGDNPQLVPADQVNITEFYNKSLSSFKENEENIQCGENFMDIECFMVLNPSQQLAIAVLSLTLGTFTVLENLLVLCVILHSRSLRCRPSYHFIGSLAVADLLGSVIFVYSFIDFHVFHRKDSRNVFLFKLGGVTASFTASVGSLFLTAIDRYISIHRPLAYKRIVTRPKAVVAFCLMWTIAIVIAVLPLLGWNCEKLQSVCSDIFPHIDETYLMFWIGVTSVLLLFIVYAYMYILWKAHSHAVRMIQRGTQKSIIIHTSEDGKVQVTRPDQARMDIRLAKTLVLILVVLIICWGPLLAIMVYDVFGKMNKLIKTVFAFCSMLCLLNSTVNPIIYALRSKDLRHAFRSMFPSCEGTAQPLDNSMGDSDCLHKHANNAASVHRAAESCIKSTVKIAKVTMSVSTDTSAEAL
Test [5] deals with T4, G-protein coupled receptor 35 (Homo sapiens, UniProt Q9HC97). Briefly: SAR analysis of Antagonists of the GPR35 Receptor using an Image-Based Assay - Set 3. [Related pubchem assays (depositor defined):AID2013, AID2026]. The class given is functional.
T4 sequence (Q9HC97 whole entry): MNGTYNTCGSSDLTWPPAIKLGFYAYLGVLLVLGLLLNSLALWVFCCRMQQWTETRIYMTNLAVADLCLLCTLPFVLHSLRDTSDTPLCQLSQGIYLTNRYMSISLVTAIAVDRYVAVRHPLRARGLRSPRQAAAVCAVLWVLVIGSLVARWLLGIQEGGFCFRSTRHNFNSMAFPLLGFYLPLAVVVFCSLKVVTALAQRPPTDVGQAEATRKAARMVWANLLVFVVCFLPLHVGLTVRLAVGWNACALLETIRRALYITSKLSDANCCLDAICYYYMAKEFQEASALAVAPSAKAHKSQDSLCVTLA
The target in test [6] is T3, Cannabinoid receptor 1. Briefly: SAR analysis of antagonists of the Cannabinoid Receptor 1 using an Image-Based Assay - Set 2. [Related pubchem assays (depositor defined):AID2013, AID2026]. The class given is functional.
Test [7] concerns the target T4, G-protein coupled receptor 35. Kind of test: SAR analysis of Agonists of the GPR35 Receptor using an Image-Based Assay - Set 2. [Related pubchem assays (depositor defined):AID2013, AID2026]. The class given is functional.
The target in test [8] is T2, Cannabinoid receptor 2. Briefly: SAR analysis of agonists of the Cannabinoid Receptor 2 using an Image-Based Assay. [Related pubchem assays (depositor defined):AID2013, AID2026]. The class given is functional.
In test [9] the target is T5, SUMO-activating enzyme (Homo sapiens, UniProt Q9UBT2). Kind of test: blockers of UBC9-mediated SUMO conjugation – biochemical, AlphaScreen, SUMOylation inhibitor project, confirmation (AID 2018). The class given is functional. (In general: In Alpha technology, singlet oxygen from a donor bead excites a nearby acceptor bead.)
T5 sequence (Q9UBE0 whole entry): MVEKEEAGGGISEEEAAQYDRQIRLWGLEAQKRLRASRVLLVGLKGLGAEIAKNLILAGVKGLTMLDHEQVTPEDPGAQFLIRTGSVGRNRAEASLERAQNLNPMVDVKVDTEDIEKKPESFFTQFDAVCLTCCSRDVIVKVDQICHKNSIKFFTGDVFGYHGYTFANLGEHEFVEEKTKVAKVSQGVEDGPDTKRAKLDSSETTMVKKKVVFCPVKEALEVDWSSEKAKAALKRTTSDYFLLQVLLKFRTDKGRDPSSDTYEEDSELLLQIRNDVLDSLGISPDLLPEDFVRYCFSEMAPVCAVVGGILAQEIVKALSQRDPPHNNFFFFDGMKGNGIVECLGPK
T5 sequence (Q9UBT2 whole entry): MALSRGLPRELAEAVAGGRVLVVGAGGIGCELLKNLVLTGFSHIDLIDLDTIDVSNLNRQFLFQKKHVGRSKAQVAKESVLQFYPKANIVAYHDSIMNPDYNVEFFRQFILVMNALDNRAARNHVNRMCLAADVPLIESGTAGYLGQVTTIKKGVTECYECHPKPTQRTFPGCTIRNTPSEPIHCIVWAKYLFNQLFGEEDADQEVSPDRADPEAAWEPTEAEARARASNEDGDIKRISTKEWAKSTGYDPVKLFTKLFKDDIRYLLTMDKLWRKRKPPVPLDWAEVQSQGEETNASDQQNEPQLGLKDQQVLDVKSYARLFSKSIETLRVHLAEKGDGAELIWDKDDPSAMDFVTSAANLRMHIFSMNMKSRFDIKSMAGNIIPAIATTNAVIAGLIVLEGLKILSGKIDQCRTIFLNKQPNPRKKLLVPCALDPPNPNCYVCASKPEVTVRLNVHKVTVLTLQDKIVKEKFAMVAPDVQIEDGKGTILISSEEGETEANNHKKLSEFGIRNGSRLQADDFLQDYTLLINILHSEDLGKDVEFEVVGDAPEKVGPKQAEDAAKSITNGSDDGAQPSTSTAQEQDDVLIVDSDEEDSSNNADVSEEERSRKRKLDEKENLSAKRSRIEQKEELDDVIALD
For test [10], the target named is Intestinal-type alkaline phosphatase (Homo sapiens, UniProt P09923). Briefly: activation of human intestinal alkaline phosphatase – biochemical, dose response (AID 488873). Type of test: functional.
Intestinal-type alkaline phosphatase (Homo sapiens, UniProt P09923), sequence (P09923 whole entry): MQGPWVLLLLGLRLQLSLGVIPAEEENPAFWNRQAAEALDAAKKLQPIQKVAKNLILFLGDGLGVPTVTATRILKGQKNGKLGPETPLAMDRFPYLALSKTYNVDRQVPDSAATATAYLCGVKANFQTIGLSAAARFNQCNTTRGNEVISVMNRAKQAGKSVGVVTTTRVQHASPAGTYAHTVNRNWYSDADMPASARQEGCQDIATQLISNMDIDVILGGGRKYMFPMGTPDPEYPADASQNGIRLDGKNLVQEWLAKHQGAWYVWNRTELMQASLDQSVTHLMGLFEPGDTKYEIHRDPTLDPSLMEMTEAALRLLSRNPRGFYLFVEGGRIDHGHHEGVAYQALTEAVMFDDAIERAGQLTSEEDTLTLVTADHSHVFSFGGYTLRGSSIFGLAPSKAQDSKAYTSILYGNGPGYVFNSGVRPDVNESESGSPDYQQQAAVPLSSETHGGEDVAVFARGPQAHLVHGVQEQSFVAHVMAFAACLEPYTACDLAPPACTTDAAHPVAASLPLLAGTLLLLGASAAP
Test [11] addresses Polyadenylate-binding protein 1 (Homo sapiens, UniProt P11940). Kind of test: blockers of PABP interaction with poly(A) – biochemical, fluorescence polarization, […] (AID 2014). (In general: Fluorescence polarisation rises when a labelled molecule tumbles more slowly, as on binding a larger partner.)
In test [12] the target is T5, SUMO-activating enzyme. Briefly: blockers of SAE1/SAE2–UBC9 SUMO transfer – biochemical, HTRF, uHTS, primary screen (AID 2006). The class given is protein-complex assay.
For test [13], the target named is T6, Alkaline phosphatase, tissue-nonspecific isozyme (Homo sapiens, UniProt P05186).
T6 sequence (P05186 whole entry): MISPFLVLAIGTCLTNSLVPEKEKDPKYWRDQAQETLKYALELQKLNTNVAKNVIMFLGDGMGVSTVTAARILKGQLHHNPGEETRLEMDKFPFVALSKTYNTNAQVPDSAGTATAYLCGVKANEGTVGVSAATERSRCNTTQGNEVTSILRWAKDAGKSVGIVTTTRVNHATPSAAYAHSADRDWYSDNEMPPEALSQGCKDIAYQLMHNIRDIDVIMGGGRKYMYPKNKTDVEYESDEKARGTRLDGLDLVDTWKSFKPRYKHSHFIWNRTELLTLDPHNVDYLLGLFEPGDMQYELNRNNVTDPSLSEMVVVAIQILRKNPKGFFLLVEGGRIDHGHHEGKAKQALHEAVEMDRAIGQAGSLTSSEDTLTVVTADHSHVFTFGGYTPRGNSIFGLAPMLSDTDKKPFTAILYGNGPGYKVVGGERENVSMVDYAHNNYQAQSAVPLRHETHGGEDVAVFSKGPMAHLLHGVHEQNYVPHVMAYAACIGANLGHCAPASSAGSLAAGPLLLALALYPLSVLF
Briefly: activation of tissue-nonspecific alkaline phosphatase – biochemical, TNAP isozyme, mouse IAP uHTS hits, selectivity assay for mouse IAP activator project, dose response (AID 488880). The class given is functional.

Test [14] deals with Intestinal-type alkaline phosphatase (Mus musculus, UniProt P24822). Briefly: mouse intestinal alkaline phosphatase activators, dose response, biochemical, luminescence, uHTS hits (AID 488783). The class given is functional.
Intestinal-type alkaline phosphatase (Mus musculus, UniProt P24822), sequence (P24822 whole entry): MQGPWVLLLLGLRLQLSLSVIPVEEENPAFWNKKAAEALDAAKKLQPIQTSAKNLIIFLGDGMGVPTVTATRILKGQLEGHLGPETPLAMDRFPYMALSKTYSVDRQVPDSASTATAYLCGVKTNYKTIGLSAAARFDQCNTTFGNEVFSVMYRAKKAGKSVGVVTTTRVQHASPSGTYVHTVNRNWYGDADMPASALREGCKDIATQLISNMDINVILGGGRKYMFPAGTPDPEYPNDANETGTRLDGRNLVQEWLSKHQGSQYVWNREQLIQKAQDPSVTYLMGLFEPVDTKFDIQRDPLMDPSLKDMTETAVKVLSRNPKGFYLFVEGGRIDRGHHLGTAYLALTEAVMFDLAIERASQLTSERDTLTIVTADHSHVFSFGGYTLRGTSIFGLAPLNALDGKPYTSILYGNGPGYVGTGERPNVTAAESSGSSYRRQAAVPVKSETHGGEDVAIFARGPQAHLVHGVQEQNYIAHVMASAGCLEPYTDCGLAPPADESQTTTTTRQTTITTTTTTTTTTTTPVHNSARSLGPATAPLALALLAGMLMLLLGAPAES
The target in test [15] is Eukaryotic translation initiation factor 4H (Homo sapiens, UniProt Q15056). Kind of test: eIF4H binding inhibition – biochemical, uHTS, fluorescence polarization, translation initiation inhibitor project, primary screen (AID 2012).
The target of test [16] is T7, Tyrosine-protein phosphatase non-receptor type 22 (Homo sapiens, UniProt Q9Y2R2).
T7 sequence (Q9Y2R2 whole entry): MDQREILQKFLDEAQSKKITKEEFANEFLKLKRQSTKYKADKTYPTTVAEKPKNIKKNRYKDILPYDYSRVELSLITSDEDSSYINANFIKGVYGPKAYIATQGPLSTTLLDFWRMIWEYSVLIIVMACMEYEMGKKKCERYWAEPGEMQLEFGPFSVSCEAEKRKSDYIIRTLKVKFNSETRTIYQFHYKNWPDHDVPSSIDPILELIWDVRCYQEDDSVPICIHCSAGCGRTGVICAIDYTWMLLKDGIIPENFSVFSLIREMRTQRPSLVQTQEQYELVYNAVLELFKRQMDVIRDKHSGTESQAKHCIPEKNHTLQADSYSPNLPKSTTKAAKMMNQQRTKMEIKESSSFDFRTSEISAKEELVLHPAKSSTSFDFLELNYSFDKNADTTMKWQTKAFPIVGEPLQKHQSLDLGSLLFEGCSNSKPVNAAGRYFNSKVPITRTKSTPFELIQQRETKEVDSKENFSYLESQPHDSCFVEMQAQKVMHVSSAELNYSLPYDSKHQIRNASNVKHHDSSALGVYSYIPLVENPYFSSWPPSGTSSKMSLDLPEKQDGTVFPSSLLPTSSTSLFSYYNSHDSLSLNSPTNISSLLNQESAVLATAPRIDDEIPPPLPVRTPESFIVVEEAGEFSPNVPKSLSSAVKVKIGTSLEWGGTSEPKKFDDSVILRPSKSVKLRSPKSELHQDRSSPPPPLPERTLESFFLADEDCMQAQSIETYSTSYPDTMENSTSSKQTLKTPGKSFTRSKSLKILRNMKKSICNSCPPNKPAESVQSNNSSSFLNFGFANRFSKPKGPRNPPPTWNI
Type of test: functional.

In test [17] the target is T8, Tyrosine-protein phosphatase non-receptor type 7 (Homo sapiens, UniProt P35236).
T8 sequence (P35236 whole entry): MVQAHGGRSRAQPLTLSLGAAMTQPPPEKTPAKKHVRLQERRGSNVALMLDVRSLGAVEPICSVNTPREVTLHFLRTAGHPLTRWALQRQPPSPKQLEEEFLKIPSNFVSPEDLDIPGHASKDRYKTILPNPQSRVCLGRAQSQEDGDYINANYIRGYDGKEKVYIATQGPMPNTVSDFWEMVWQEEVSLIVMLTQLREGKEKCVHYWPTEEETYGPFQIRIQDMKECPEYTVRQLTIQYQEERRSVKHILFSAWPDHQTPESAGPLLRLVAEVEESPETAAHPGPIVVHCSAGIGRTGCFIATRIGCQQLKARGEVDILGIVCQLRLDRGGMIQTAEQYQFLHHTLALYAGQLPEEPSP
Type of test: functional.

The target of test [18] is T7, Tyrosine-protein phosphatase non-receptor type 22. The class given is functional. The source holds these as a separate data set.

Structures are written as SMILES. Calls of active or inactive are those of the source.

T1 sequence (Q9Y2T6 whole entry): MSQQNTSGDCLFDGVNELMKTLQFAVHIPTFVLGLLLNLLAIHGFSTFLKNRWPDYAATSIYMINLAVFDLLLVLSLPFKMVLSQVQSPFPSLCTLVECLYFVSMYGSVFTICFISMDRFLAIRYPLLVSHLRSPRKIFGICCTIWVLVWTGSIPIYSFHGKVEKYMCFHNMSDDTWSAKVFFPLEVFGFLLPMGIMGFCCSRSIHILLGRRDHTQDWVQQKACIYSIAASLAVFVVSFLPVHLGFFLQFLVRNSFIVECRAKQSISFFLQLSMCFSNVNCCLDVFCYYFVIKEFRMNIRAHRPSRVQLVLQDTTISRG
Polyadenylate-binding protein 1, sequence (P11940 whole entry): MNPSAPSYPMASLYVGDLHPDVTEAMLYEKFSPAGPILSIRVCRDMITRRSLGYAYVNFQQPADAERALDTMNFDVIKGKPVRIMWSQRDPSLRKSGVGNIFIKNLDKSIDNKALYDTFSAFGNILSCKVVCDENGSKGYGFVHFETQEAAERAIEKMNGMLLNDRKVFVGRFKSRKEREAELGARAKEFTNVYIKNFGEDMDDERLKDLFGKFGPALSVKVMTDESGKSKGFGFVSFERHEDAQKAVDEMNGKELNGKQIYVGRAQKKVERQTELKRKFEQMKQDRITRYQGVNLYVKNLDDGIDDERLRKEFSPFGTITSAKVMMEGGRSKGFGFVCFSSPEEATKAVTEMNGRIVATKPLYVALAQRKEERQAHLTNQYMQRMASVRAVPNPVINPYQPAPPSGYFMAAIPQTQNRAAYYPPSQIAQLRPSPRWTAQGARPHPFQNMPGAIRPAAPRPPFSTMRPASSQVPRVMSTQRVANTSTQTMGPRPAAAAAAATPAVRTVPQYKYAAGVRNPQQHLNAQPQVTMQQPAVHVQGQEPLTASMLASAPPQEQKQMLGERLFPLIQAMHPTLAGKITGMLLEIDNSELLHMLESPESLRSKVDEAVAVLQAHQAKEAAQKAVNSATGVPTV

For `CCCCC1(Cc2cccc([N+](=O)[O-])c2)C(=O)N(c2ccccc2)N(c2ccccc2)C1=O`, the IC50 in [1] is 0.577 µM (active); on Cannabinoid receptor 2 [2], > 32 µM (inactive); in test [3] it was 0.552 µM (active); in test [5], > 32 µM (inactive); on Cannabinoid receptor 1 [6], 11 µM (inactive). Also, the EC50 (on Cannabinoid receptor 1 [4]; in test [7]; at Cannabinoid receptor 2 [8]) was > 32 µM (inactive) throughout.

In the case of `Cc1ccc(C(=O)Nc2nnc(CC(=O)N/N=C/c3ccc(O)c(O)c3)s2)cc1`, the IC50 on SUMO-activating enzyme [9] is 1.71 µM (active); in [11], 46 µM (active); at SUMO-activating enzyme [12], 37.1 µM (active); in test [15], 4.81 µM (active). Further, the EC50 is 66 µM (active) in test [10], 47.8 µM (active) in test [13] and 37.2 µM (active) in [14].

In the case of `Cc1cccc(-n2cc(CN3CCN(C(=O)c4nc[nH]n4)CC3)c(-c3cccc(F)c3)n2)c1`, the IC50 in [16], in test [17] and in test [18] was > 79.4 µM (inactive) in each case.

A word on the IC50: it is the midpoint of a concentration-inhibition curve. The EC50 is the midpoint of the concentration-response curve.
